Test: pH measurement of 0.1 M aqueous solutions
Format: physicochemical
Conditions: 0.1 M in millipore water, r.t., average of at least three measurements
Description: For the pH measurements, a Seven2Go portable pH meter S2 (pH measuring-range: −2 to 20; resolution: 0.01) with an InLab Ultra Micro-ISM electrode (measuring range: pH −1 to pH 11; low temperature membrane glass type; ceramic diaphragm; reference system with Ag^+ ion trap by argenthal) as well as with an in-lab routine pH electrode (measuring range: pH 0 to pH 14; ceramic diaphragm; reference system with Ag^+ ion trap by argenthal) from Mettler-Toledo AG (Analytical, Switzerland) was used.
For sake of comparability, compounds of the same loading ratio n=2, which is 2:1 of the loaded carboxylic acid with respect to the carrier carboxylic acid, were selected for this analysis. […] The analytes were dissolved in millipore water, stirred for 5 minutes in an airtight vial to perform the pH measurements thereafter at r.t. All measurements were performed at 0.1 molar (M) concentration of the samples, which is 0.1 mol per liter (mol/L).
For sake of reliability, every result stated is the average of at least three single measurements. […] The numbers 1-73 (nr., first row) are used as an assignment for the 73 pairs, comprising the compound of invention (third row), the corresponding carrier carboxylic acid (fourth row) and the loaded carboxylic acid (fifth row), as used in the FIG. 6.

Compound	pH values compound
CC(=O)O.CC(=O)O.CC(=O)O.CC(=O)[O-].CC(=O)[O-].[Ca+2] [CaAc-HAc [3]]	4.62
CC(=O)[O-].CC(=O)[O-].CCC(=O)O.CCC(=O)O.[Ca+2] [CaAc-HProp [2]]	5.16
CC(=O)O.CC(=O)O.O=C1OC(C(O)CO)C([O-])=C1O.O=C1OC(C(O)CO)C([O-])=C1O.[Ca+2] (centres unmarked) [CaAsc-HAc [2], calcium ascorbate with loaded acetic acid]	4.42
CC(=O)O.CC(=O)O.CC(=O)O.O=C1OC(C(O)CO)C([O-])=C1O.O=C1OC(C(O)CO)C([O-])=C1O.[Ca+2] (centres unmarked) [CaAsc-HAc [3], calcium ascorbate with loaded acetic acid]	4.22
CC(=O)O.CC(=O)O.CC(=O)O.CC(=O)O.O=C1OC(C(O)CO)C([O-])=C1O.O=C1OC(C(O)CO)C([O-])=C1O.[Ca+2] (centres unmarked) [CaAsc-HAc [4]]	4.22
CC(=O)O.CC(=O)O.CC(=O)O.CC(=O)O.CC(=O)O.CC(=O)O.O=C1OC(C(O)CO)C([O-])=C1O.O=C1OC(C(O)CO)C([O-])=C1O.[Ca+2] (centres unmarked) [CaAsc-HAc [6]]	4.12
CCC(=O)O.CCC(=O)O.O=C1OC(C(O)CO)C([O-])=C1O.O=C1OC(C(O)CO)C([O-])=C1O.[Ca+2] (centres unmarked) [CaAsc-HProp [2], calcium ascorbate with loaded propionic acid]	4.88
CC(=O)O.CC(=O)O.NC(CC(=O)[O-])C(=O)[O-].[Ca+2] (centres unmarked) [CaAsp-HAc [2]]	4.42
NC(CC(=O)[O-])C(=O)[O-].O=C(O)CO.O=C(O)CO.[Ca+2] (centres unmarked) [CaAsp-HGly [2]]	3.88
CC(=O)O.CC(=O)O.O=C([O-])c1ccccc1.O=C([O-])c1ccccc1.[Ca+2] [CaBen-HAc [2]]	4.46
CCC(=O)O.CCC(=O)O.O=C([O-])c1ccccc1.O=C([O-])c1ccccc1.[Ca+2] [CaBen-HProp [2]]	4.64
CC(=O)O.CC(=O)O.O=C[O-].O=C[O-].[Ca+2] [CaFo-HAc [2]]	4.74
CC(=O)O.CC(=O)O.O=C([O-])/C=C/C(=O)[O-].[Ca+2] [CaFum-HAc [2]]	4.17
O=C([O-])/C=C/C(=O)[O-].O=CO.O=CO.[Ca+2] [CaFum-HFo [2]]	3.58
CC(O)C(=O)O.CC(O)C(=O)O.O=C([O-])/C=C/C(=O)[O-].[Ca+2] [CaFum-HLac [2]]	3.68
CCC(=O)O.CCC(=O)O.O=C([O-])/C=C/C(=O)[O-].[Ca+2] [CaFum-HProp [2]]	4.27
CC(=O)O.CC(=O)O.NC(CCC(=O)[O-])C(=O)[O-].[Ca+2] (centres unmarked) [CaGlu-HAc [2]]	4.52
CC(O)C(=O)O.CC(O)C(=O)O.CC(O)C(=O)O.CC(O)C(=O)O.NC(CCC(=O)[O-])C(=O)[O-].[Ca+2] (centres unmarked) [CaGlu-HLac [4]]	3.60
CCC(=O)O.CCC(=O)O.O=C([O-])CO.O=C([O-])CO.[Ca+2] [CaGly-HProp [2]]	4.63
CC(=O)O.CC(=O)O.CC(O)C(=O)[O-].CC(O)C(=O)[O-].[Ca+2] (centres unmarked) [CaLac-HAc [2]]	4.58
CC(O)C(=O)O.CC(O)C(=O)O.CC(O)C(=O)[O-].CC(O)C(=O)[O-].[Ca+2] (centres unmarked) [CaLac-HLac [2]]	3.45
CC(O)C(=O)O.CC(O)C(=O)O.CC(O)C(=O)O.CC(O)C(=O)[O-].CC(O)C(=O)[O-].[Ca+2] (centres unmarked) [CaLac-HLac [3]]	3.38
CC(O)C(=O)O.CC(O)C(=O)O.CC(O)C(=O)O.CC(O)C(=O)O.CC(O)C(=O)[O-].CC(O)C(=O)[O-].[Ca+2] (centres unmarked) [CaLac-HLac [4]]	3.30
CCC(=O)O.CCC(=O)O.O=C([O-])CC(O)C(=O)[O-].[Ca+2] (centres unmarked) [CaM-HProp [2]]	4.45
CC(=O)O.CC(=O)O.O=C([O-])CC(O)C(=O)[O-].[Ca+2] (centres unmarked) [CaMa-HAc [2]]	4.53
CC(=O)O.CC(O)C(=O)O.CCC(=O)O.O=C([O-])CC(O)C(=O)[O-].[Ca+2] (centres unmarked) [CaMa-HAc-HProp-HLac [1,1,1]]	4.97
